Assay results taken from the supplement of paper PMC11451515.

System: SEM cells
Assay: cell viability relative to DMSO control; higher = less cytotoxic
Settings: 48 h
How it was run: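 Three leukemia lines were tested: NOMO1 and SEM at 500 cells/well and P12-Ichikawa at 1000 cells/well. Each was adapted for at least four passages in each medium and seeded in 5 μl in 1536-well plates, and library compounds in DMSO were pin-dosed from 47 μM to 0.79 nM in 11 threefold steps. After 48 h at 37°C, CellTiter-Glo One luminescence was read. Viability is a percentage relative to DMSO wells on each plate, with cell-free wells as background.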

[1] = HPLM + 10% dialyzed FBS, 0.000781 µM
[2] = HPLM + 10% dialyzed FBS, 0.00234 µM
[3] = HPLM + 10% dialyzed FBS, 0.00702 µM
[4] = HPLM + 10% dialyzed FBS, 0.0211 µM
[5] = HPLM + 10% dialyzed FBS, 0.0632 µM
[6] = HPLM + 10% dialyzed FBS, 0.19 µM
[7] = HPLM + 10% dialyzed FBS, 0.569 µM
[8] = HPLM + 10% dialyzed FBS, 1.71 µM
[9] = HPLM + 10% dialyzed FBS, 5.12 µM
[10] = HPLM + 10% dialyzed FBS, 15.4 µM
[11] = HPLM + 10% dialyzed FBS, 46.1 µM
[12] = RPMI 5 mM glucose + 10% FBS, 0.000781 µM
[13] = RPMI 5 mM glucose + 10% FBS, 0.00234 µM
[14] = RPMI 5 mM glucose + 10% FBS, 0.00702 µM
[15] = RPMI 5 mM glucose + 10% FBS, 0.0211 µM
[16] = RPMI 5 mM glucose + 10% FBS, 0.0632 µM
[17] = RPMI 5 mM glucose + 10% FBS, 0.19 µM
[18] = RPMI 5 mM glucose + 10% FBS, 0.569 µM
[19] = RPMI 5 mM glucose + 10% FBS, 1.71 µM
[20] = RPMI 5 mM glucose + 10% FBS, 5.12 µM
[21] = RPMI 5 mM glucose + 10% FBS, 15.4 µM
[22] = RPMI 5 mM glucose + 10% FBS, 46.1 µM
[23] = RPMI 5 mM glucose + 10% dialyzed FBS, 0.000781 µM
[24] = RPMI 5 mM glucose + 10% dialyzed FBS, 0.00234 µM
[25] = RPMI 5 mM glucose + 10% dialyzed FBS, 0.00702 µM
[26] = RPMI 5 mM glucose + 10% dialyzed FBS, 0.0211 µM
[27] = RPMI 5 mM glucose + 10% dialyzed FBS, 0.0632 µM
[28] = RPMI 5 mM glucose + 10% dialyzed FBS, 0.19 µM
[29] = RPMI 5 mM glucose + 10% dialyzed FBS, 0.569 µM
[30] = RPMI 5 mM glucose + 10% dialyzed FBS, 1.71 µM
[31] = RPMI 5 mM glucose + 10% dialyzed FBS, 5.12 µM
[32] = RPMI 5 mM glucose + 10% dialyzed FBS, 15.4 µM
[33] = RPMI 5 mM glucose + 10% dialyzed FBS, 46.1 µM

| Structure (SMILES) | cell viability [1] [%] | cell viability [2] [%] | cell viability [3] [%] | cell viability [4] [%] | cell viability [5] [%] | cell viability [6] [%] | cell viability [7] [%] | cell viability [8] [%] | cell viability [9] [%] | cell viability [10] [%] | cell viability [11] [%] | cell viability [12] [%] | cell viability [13] [%] | cell viability [14] [%] | cell viability [15] [%] | cell viability [16] [%] | cell viability [17] [%] | cell viability [18] [%] | cell viability [19] [%] | cell viability [20] [%] | cell viability [21] [%] | cell viability [22] [%] | cell viability [23] [%] | cell viability [24] [%] | cell viability [25] [%] | cell viability [26] [%] | cell viability [27] [%] | cell viability [28] [%] | cell viability [29] [%] | cell viability [30] [%] | cell viability [31] [%] | cell viability [32] [%] | cell viability [33] [%] |
| --- | --- | --- | --- | --- | --- | --- | --- | --- | --- | --- | --- | --- | --- | --- | --- | --- | --- | --- | --- | --- | --- | --- | --- | --- | --- | --- | --- | --- | --- | --- | --- | --- | --- |
| COc1ccc(-n2nc(C(N)=O)c3c2C(=O)N(c2ccc(N4CCCCC4=O)cc2)CC3)cc1 | 99.5 | 116 | 132 | 142 | 120 | 137 | 134 | 130 | 133 | 145 | 128 | 120 | 136 | 117 | 124 | 101 | 120 | 136 | 145 | 136 | 154 | 136 |  |  |  |  |  |  |  |  |  |  |  |
| NC\1=N\C(=O)N(\C=C1)[C@@H]2O[C@H](CO)[C@@H](O)[C@H]2O | 78.4 | 93.7 | 119 | 98.3 | 117 | 131 | 132 | 115 | 111 | 125 | 75.3 | 86.3 | 102 | 123 | 90.4 | 135 | 143 | 143 | 144 | 127 | 147 | 64.7 | 83.6 | 101 | 125 | 94.5 | 140 | 138 | 154 | 152 | 154 | 153 | 46.8 |
| C[C@]12CC[C@@H]3c4ccc(O)cc4C[C@@H](CCCCCCCCC[S+]([O-])CCCC(F)(F)C(F)(F)F)[C@H]3[C@@H]1CC[C@@H]2O (stereo partly specified) | 123 | 112 | 114 | 118 | 113 | 112 | 125 | 117 | 119 | 126 | 109 | 89.1 | 84 | 82.8 | 93.2 | 85 | 80.4 | 82.4 | 99.2 | 80.8 | 83.7 | 86.3 | 120 | 124 | 105 | 111 | 110 | 112 | 125 | 114 | 103 | 102 | 81.6 |
| Cc1cc2c(F)c(Oc3ncnn4cc(OC[C@@H](C)O)c(C)c34)ccc2[nH]1 | 107 | 108 | 101 | 102 | 106 | 104 | 88.7 | 83.2 | 70.5 | 38.6 | 26.6 | 117 | 117 | 141 | 124 | 110 | 99.4 | 100 | 85.3 | 77.6 | 39.7 | 26.2 | 87.5 | 92.6 | 103 | 102 | 92.9 | 89.3 | 92.4 | 79.3 | 70.3 | 26 | 13.7 |
| CC(C)C[C@@H](C=O)NC(=O)[C@H](CC(C)C)NC(=O)[C@H](CC(C)C)NC(=O)OCc1ccccc1 | 108 | 115 | 126 | 122 | 148 | 139 | 81.8 | 9.69 | 9.22 | 8.52 | 8.11 | 111 | 131 | 124 | 143 | 124 | 127 | 10.8 | 9.94 | 10 | 9.17 | 8.59 |  |  |  |  |  |  |  |  |  |  |  |
| C=CC(=O)N1CCC[C@@H](n2nc(-c3ccc(Oc4ccccc4)cc3)c3c(N)ncnc32)C1 |  |  |  |  |  |  |  |  |  |  |  | 95.1 | 127 | 112 | 99 | 128 | 110 | 102 | 99.7 | 103 | 79.9 | 33.5 |  |  |  |  |  |  |  |  |  |  |  |
| C[S+]([O-])(=O)C1=CC=C(C=C1)C/2=C(/C(=O)OC2)C3=CC=CC=C3 | 96 | 102 | 105 | 107 | 103 | 115 | 104 | 115 | 115 | 79.7 | 94.1 | 100 | 107 | 104 | 119 | 114 | 122 | 104 | 95.1 | 102 | 66.9 | 11.4 | 89.4 | 105 | 115 | 111 | 112 | 120 | 119 | 117 | 124 | 75 | 71.6 |
| N#Cc1c(NC(=O)c2cccc3ccccc23)sc2c1CCCC2 | 108 | 115 | 116 | 125 | 125 | 105 | 66 | 23.2 | 24.1 | 19.7 | 23 | 119 | 119 | 130 | 125 | 119 | 119 | 48.4 | 20.3 | 16.9 | 15.6 | 17.9 | 122 | 125 | 126 | 137 | 124 | 118 | 53.7 | 25.5 | 26.2 | 18 | 26.1 |
| Cc1cn([C@@H]2O[C@H](CO)[C@@H](O)[C@@H]2F)c(=O)[nH]c1=O | 74.5 | 103 | 102 | 101 | 110 | 104 | 110 | 116 | 116 | 104 | 95 | 101 | 102 | 103 | 93.4 | 122 | 107 | 108 | 113 | 117 | 122 | 119 | 77 | 111 | 92.3 | 109 | 127 | 122 | 108 | 105 | 124 | 93.5 | 92.7 |
| S=C1N\C=N/C2=C1[NH]C=N2 | 91.2 | 116 | 136 | 121 | 131 | 126 | 124 | 105 | 106 | 90.6 | 81.7 | 104 | 119 | 144 | 119 | 132 | 139 | 108 | 93.3 | 79.5 | 73.2 | 66.4 | 105 | 119 | 138 | 106 | 134 | 119 | 91.3 | 56.7 | 48.5 | 42.4 | 33.7 |
